“And” between values parts separate entries of the source, which are not always exact repeats. Identical values can stand only once.
What was measured:
RBP2 = assay: Western blot of retinal RBP2 after I/R; type: in vivo, rat; details: intravitreal 1 day pre-ischemia: 10 μM/5 μl JIB-04, 4 μM/5 μl shikonin, 125 μg/5 μl avastin; Vehicle+I/R = 100%
Experimental: (§1) DNL was purchased from the Ko Da Company (Taipei, Taiwan) and dissolved in ddH2O. For the electrophysiological, immuohistochemical and molecular biological studies, drug administration was carried out for seven days and involved various groups, namely a post-ischemia administration (daily high dose of DNL at 1 g/kg/day, I/R+DNL1.0), or pre-ischemia administration (daily high dose of DNL, DNL1.0+I/R; low dose of DNL at 0.5 g/kg/day, DNL0.5+I/R). The rats in the vehicle group that were subjected to ischemia were either post-administered (I/R+Vehicle) or pre-administered with a similar volume of vehicle (Vehicle+I/R) as the DNL group.
(§2) As compared with the Sham, Vehicle+I/R or DNL1.0+I/R group, the ischemic eyes of other groups received intravitreal injections using a 30-gauge needle connected to a 25 μl syringe after the pupil was dilated with 1% tropicamide and 2.5% phenylephrine. Specifically, the ischemic eyes received 1 day pre-ischemia intravitreal administrations of various inhibitors/antibodies, namely 10 μM/5 μl JIB-04 (Sigma-Aldrich), 4 μM/5 μl Shikonin (S7576; Sigma-Aldrich), 125 μg/5 μl Avastin (Hoffmann-La Roche), or 200 μg/5 μl Eylea (Regeneron Pharmaceuticals Inc.). One day after retinal I/R and administration of relevant compounds or after a sham procedure, the animals were sacrificed. Retinal samples were collected in order to measure the protein levels of […], RBP2, PKM2, VEGF-A and PLGF by the western blot assay or ELISA.
(§3) Ischemia induction. Each rat was anesthetized with the above anesthetics and placed in a stereotaxic frame. […]
(§4) Retinal/cellular samples were retrieved and sonicated in lysis buffer, namely mammalian protein extraction reagent (MPER; HyCell). Identical quantities of denatured proteins (40 μg/30 μl/well) then underwent sodium dodecyl sulfate polyacrylamide gel electrophoresis (SDS-PAGE; Bio-Rad) as described previously. […] The amount of each protein was then evaluated by scanning densitometry.

VEGF = assay: Western blot of retinal VEGF after I/R; type: in vivo, rat; details: intravitreal 1 day pre-ischemia: 10 μM/5 μl JIB-04, 4 μM/5 μl shikonin, 125 μg/5 μl avastin; Vehicle+I/R = 100%
Experimental: as §1, §2, §3, §4

PKM2 = assay: Western blot of retinal PKM2 after I/R; type: in vivo, rat; details: intravitreal 1 day pre-ischemia: 10 μM/5 μl JIB-04, 4 μM/5 μl shikonin, 125 μg/5 μl avastin; Vehicle+I/R = 100%
Experimental: as §1, §2, §3, §4

HIF-1α = assay: Western blot of retinal HIF-1α after I/R; type: in vivo, rat; details: intravitreal 1 day pre-ischemia: 10 μM/5 μl JIB-04, 4 μM/5 μl shikonin, 125 μg/5 μl avastin; Vehicle+I/R = 100%
Experimental: as §1
(§5) As compared with the Sham, Vehicle+I/R or DNL1.0+I/R group, the ischemic eyes of other groups received intravitreal injections using a 30-gauge needle connected to a 25 μl syringe after the pupil was dilated with 1% tropicamide and 2.5% phenylephrine. […]
as §4

[1] = test system: norrie disease protein (NDP); assay: Western blotting of NDP relative to β-actin in RGC-5 cells subjected to OGD; type: cell-based, mouse
Experimental: Moscatilin was purchased from EMMX Biotechnology (EN10271, CA, USA) and dissolved in DMSO (vehicle). […] Moscatilin (0.1 μM) was administered at 1 hour pre-OGD, during OGD, or at 1 hour post-OGD. Its therapeutic effects were evaluated by MTT and Western blotting assays.
(§6) The RCG-5 cell lines were not transformed rat RGCs but, rather, mouse retinal neuronal precursors. OGDs were defined as cells that were maintained in glucose-free DMEM (Thermo Fisher Scientific Inc.) at 37° C. under the hypoxic (ischemic-like) conditions, namely 1% O2 (monitored by an analyzer; Penguin Incubator: control range 1-89%; Astec Company, Kukuoka, Japan), 94% N2 and 5% CO2. There were different groups, consisting of cells that received (i) DMSO in DMEM (control cells; DMSO+DMEM), (ii) DMSO followed by OGD (DMSO+OGD), (iii) OGD and administration of moscatilin (0.1 μM in DMEM) at 1 hour pre-OGD (Pre-OGD Mos 0.1 μM), (iv) during OGD (During OGD Mos 0.1 μM), or (v) at 1 hour post-OGD (Post-OGD Mos 0.1 μM). At the end of the 1 day OGD period, the cell cultures were returned to fresh DMEM for another 24 h. The MTT (viability) and the Western blotting assays (NDP) were then performed.
Retinal/cellular samples were retrieved and sonicated in lysis buffer, namely mammalian protein extraction reagent (MPER; HyCell). Identical quantities of denatured proteins (40 μg/30 μl/well) then underwent sodium dodecyl sulfate polyacrylamide gel electrophoresis (SDS-PAGE; Bio-Rad) as described previously. After separation, the protein bands were transferred to a polyvinylidene difluoride (PVDF) membrane and then immersed for 12 hours at 4° C. with the following primary antibodies, mouse monoclonal anti-β-actin antibody (AC-15; 1:2,000; ab6276)/anti-HIF-1α antibody (1:200; H1alpha67-ChIP Grade; Abcam Inc.), rabbit polyclonal anti-VEGF antibody (A-20; 1:200; sc-152)/anti-PKM2 antibody (1:500; ab38237), or rabbit monoclonal anti-RBP2 antibody (ab177486; 1:1000; Abcam Inc.). […] The amount of each protein was then evaluated by scanning densitometry.

RGC-5 cells = assay: MTT cell viability assay of RGC-5 cells subjected to oxygen glucose deprivation (OGD); type: cell-based, mouse; details: Mus musculus
Experimental: (§7) Moscatilin was purchased from EMMX Biotechnology (EN10271, CA, USA) and dissolved in DMSO (vehicle). […] […] Its therapeutic effects were evaluated by MTT and Western blotting assays.
as §6, with “([…]),” for “(iii) OGD and administration of moscatilin (0.1 μM in DMEM) at 1 hour pre-OGD (Pre-OGD Mos 0.1 μM),”
(§8) Mitochondria NADPH dependent oxidoreductases were capable of reducing MTT to form formazan. Therefore, an increase in the amount of dark purple formazan corresponded to greater cell viability. MTT (0.5 mg/mL; Sigma-Aldrich) was added and allowed to react for 3 hr at 37° C. to the 96-well plates containing the original 100 μL of cells. The reduced MTT was then solubilized by adding 100 μL DMSO. After agitation of the plates, the OD of the solubilized formazan was measured using an ELISA reader (Synergy H1 Multi-Mode Reader BioTek Instruments) at 562 nm. Cell viability was expressed as OD values relative to the control (100%).

[2] = as above; type: cell-based, mouse; details: mouse, RGC-5 cells subjected to oxygen glucose deprivation (OGD), cytotoxic effect
Experimental: as §7
as §6, with “([…]),” for “(iii) OGD and administration of moscatilin (0.1 μM in DMEM) at 1 hour pre-OGD (Pre-OGD Mos 0.1 μM),”
as §8

two cell lines = details: cited from earlier work
[3] = test system: placental growth factor (PLGF); assay: ELISA of retinal PLGF after I/R; type: in vivo, rat; details: pre-ischemia intravitreal 200 μg/5 μl Eylea (Eylea+I/R); Vehicle+I/R 39.53±5.25
Experimental: as §1, §5
The level of PLGF was determined using ELISA. […] The total protein in each sample was determined using a bicinchoninic acid protein kit (Thermo Fisher Scientific). The PLGF levels in the supernatant were measured using a PLGF ELISA kit (CSB-E07400r; Cusabio Life Scince) accordingly. […] The maximum absorbance (OD) at 450 nm was detected immediately using a microplate reader (Synergy H1 Hybrid Multi-Mode Reader, Biotek ELx800). […]

## CC(C)=CC[C@@H](O)C1=CC(=O)c2c(O)ccc(O)c2C1=O [shikonin]
RBP2
  level of RBP2 (ratio to β-actin): 3.40±0.23%
VEGF
  level of VEGF (ratio to β-actin): 57.55±9.40%
PKM2
  level of PKM2 (ratio to β-actin): 44.94±10.91%
HIF-1α
  level of HIF-1α (ratio to β-actin): 42.65±0.76%

## COc1cc(CCc2cc(OC)c(O)c(OC)c2)ccc1O [moscatilin]
[1]; 0.1 μM moscatilin 1 hour pre-OGD, DMSO+DMEM = 100%, DMSO+OGD 44.54±3.15%
  amount of NDP relative to β-actin: 108.38±29.33%
[1]; 0.1 μM moscatilin 1 h post-OGD
  amount of NDP relative to β-actin: 54.36±3.88%
[1]; 0.1 μM moscatilin during OGD
  amount of NDP relative to β-actin: 48.99±9.89%
RGC-5 cells; RGC5, 0.1 μM moscatilin during OGD, P=0.31 vs DMSO+OGD
  viability at 0.1 µM: 56 ± 4.08%
RGC-5 cells; RGC5, 1 μM moscatilin pre-OGD, n=4
  viability at 1 µM: 66.4 ± 9.35%
RGC-5 cells; RGC5, 1 h, 0.1 μM moscatilin at 1 hour post-OGD, P=0.41 vs DMSO+OGD
  viability at 0.1 µM: 52.6 ± 4.16%
RGC-5 cells; RGC5, 1 h, 0.1 μM moscatilin at 1 hour pre-OGD, relative to DMSO+DMEM control (100%), DMSO+OGD 53.66±2.67%
  viability at 0.1 µM: 62.6 ± 4.35%
[2]; 10 μM moscatilin pre-OGD, n=4
  viability at 10 μM: 15.4 ± 3.09%
[2]; 100 μM moscatilin pre-OGD, n=1
  viability at 100 μM: 12.5%
Two cell lines; 24 h, two cell lines, respectively, previous reports, read-out: IC50 of reduced cell viability
  IC50: 7 µM and 6.7 µM
Two cell lines; concentrations equal to or less than 1 μM, previous researches
  toxicity to cells: non-toxic

## avastin: VEGF antibody (Hoffmann-La Roche)
RBP2
  level of RBP2 (ratio to β-actin): 78.35±3.29%
VEGF
  level of VEGF (ratio to β-actin): 5.38±2.51%
PKM2
  level of PKM2 (ratio to β-actin): 84.44±4.53%

## Clc1ccc(N/N=C(\c2ccccc2)c2ccccn2)nc1 [JIB-04]
RBP2
  level of RBP2 (ratio to β-actin): 5.83±1.43%
VEGF
  level of VEGF (ratio to β-actin): 27.82±1.21%
PKM2
  level of PKM2 (ratio to β-actin): 60.36±7.59%
HIF-1α
  level of HIF-1α (ratio to β-actin): 53.98±2.29%

## Eylea: VEGF trap/anti-PLGF (Regeneron Pharmaceuticals Inc.)
[3]
  level of PLGF: 6.44 ± 0.60 pg/mL

From patent US10493044B1, “Method for treating developmental retinal vascular disorder” (priority 2018, dated 2019)
